From US20260365692A1, “COMPOSITIONS COMPRISING PROTEINS DISSOLVED IN FLUORINATED SOLVENTS, AND METHODS OF MAKING AND USING THE SAME” (priority 2022, published 2026)

Columns and labels:
[1] = system: seven model proteins (Hb, GFP, BSA, β-Gal, IgG, TFN, URE); assay: Fluorochemical-mediated dispersion of test proteins into perfluorohexane; type: physicochemical; details: PFNA-mediated, protein hydrodynamic radius 3.5 nm
Description: Only the rabbit IgG Fc fragment is shown.
For PFAS amphiphiles, the combination of polar head group and fluorophilic tail additionally leads to their preferential assembly at water-fluorous interfaces. Based on these unique properties, it was speculated that PFAS compounds may noncovalently associate with proteins to mediate their phase separation into fluorous media. To test this, a screening assay was developed to qualitatively investigate the binding affinity of a library of perfluorinated chemicals with seven model proteins, which include human hemoglobin (Hb), green fluorescent protein (GFP), bovine serum albumin (BSA), (β-Galactosidase (β-Gal), rabbit serum immunoglobulin (IgG), bovine apo-transferrin (TFN), and urease (URE). This group of model proteins captures an array of physicochemical properties ranging in molecular weight, solvent accessible surface area (SASA), isoelectric point (pI), and hydrodynamic radii. A corresponding perfluorinated small molecule test set was selected to contain a plurality of functional groups, linear perfluorocarbon chain lengths, and cyclic or aromatic geometries (FIGS. 1-7). Selection of these compounds was based on their potential to form noncovalent bonds (i.e., hydrogen or ionic) with the solvent exposed protein surfaces. […] These three linear PFAS chemicals are currently regulated by the US Environmental Protection Agency based on their reproductive, immune, and hepatic toxicity (References: 44-46). In sum, the structural and biochemical diversity represented in the protein and fluorochemical libraries was rationally selected to allow structure-function-performance relationships to be ascertained from binding studies.

β-gal = assay: Isothermal titration calorimetry, β-Gal; type: binding
Description: (§1) To test this assertion, PFNA binding to three exemplary proteins, BSA, β-Gal and IgG, was studied via isothermal titration calorimetry (ITC) and surface plasmon resonance (SPR) techniques. […] SPR analysis yielded similar results, with sensorgrams (FIGS. 14J-14L) that diverged from a simple 1:1 ligand-protein model. […] Similar phenomenon may explain the negative signals of the SPR data and further support the ability of PFNA to modulate the conformational plasticity of adsorbed proteins.

IgG = assay: Isothermal titration calorimetry, IgG; type: binding, rabbit
Description: as §1

A549 cells [2] = assay: Protein uptake in A549 cells, Cy5-labeled BSA; type: cell-based, human; details: PFNA
Protocol: FIGS. 18A-18B depict the uptake of Cy5-labeled BSA in human lung A549 cells after 2 and 24 hours of incubation in the absence/presence of PFNA. Results are shown in relative fluorescence units (RFU).
Multiplexed in vitro assays were employed to probe the influence of PFNA interactions on protein uptake and transport in cells. A549 and PC9 human lung cells were prioritized for these assays given that pulmonary tissue is a primary site of perfluoroalkyl bioaccumulation in humans (Reference: 63). Before initiating experiments, cellular toxicity assays established a maximum tolerated dose of PFNA to avoid confounding protein transport experiments with substantive cell death. Protein uptake was then studied using green fluorescent protein (GFP) and bovine serum albumin (BSACy5) as model biologics that employ non-specific pinocytic mechanisms for cellular entry.

A549 cells [3] = assay: Annexin V/propidium iodide co-staining of A549 cells; type: cell-based, human; details: PFNA
Protocol: FIGS. 20A-20D depicts annexin-V/PI co-staining of A549 cells treated without or with PFNA at 2 and 24 hours. FIGS. 20A-20C: Flow cytometry scatter plots. FIG. 20D: quadrant data comparing the population of unaffected cells (native), to cells displaying lipid translocation (Lip. Tran.) membrane permeabilization (Mem. Perm.), or both.
The ability of PFNA to modulate protein uptake may be explained by the reported anchorage of fluorinated amphiphiles within cell membranes to alter lipid bilayer fluidity and liquid-crystalline phase transitions. To test this assertion, and inform the interpretation of the protein uptake results, the annexin V (AV)/propidium iodide (PI) assay, commonly used to study apoptosis, was repurposed to explore membrane dynamics following PFNA exposure (FIGS. 20A-20D). Here, AV bound phosphatidylserine lipids exposed via inner-to-outer leaflet translocation, while PI positively labeled cells with permeabilized membranes. Comparing dye uptake at early (2 hour) and late (24 hour) PFNA exposure times allowed interpretation of lipid translocation (AV^+, PI^−), membrane permeabilization (AV^−, PI^+), both (AV^+, PI^+), or neither (AV^−, PI^−). […]

[4] = β-Gal activity after bleach exposure; type: physicochemical; details: β-Gal in PFOc
Protocol: (§2) FIGS. 54A-54C depict the relative activity of the β-Gal protein dispersed in PBS or PFOc solvents without and with contamination by (FIG. 54A) proteinase K, (FIG. 54B) bleach or (FIG. 54C) hydrochloric acid. Data shown as average±s.d. of n=3 technical replicates. Statistical significance between conditions is indicated by a line using unpaired Student's t-test with n.s.=not significant, * p<0.05, ** p<0.01, and *** p<0.001.
(§3) Here, stock of lyophilized β-Gal was prepared then dispersed in PBS or PFOc. A small volumetric quantity (1% v/v) of 10% bleach was added to the protein samples. Immediately, an equal volume of PBS containing 4 mg/mL ONPG substrate was added to the sample and incubated for 5 minutes to allow for complete substrate conversion. Last, absorbance was taken at 420 nm on the eluted samples, and relative activity was calculated by normalizing absorbance of converted ONPG in oxidizer-treated samples against their corresponding untreated group. […] Here, stock of lyophilized B-Gal was prepared then dispersed in PBS or PFOc. A small volumetric quantity (4% v/v) of 0.1 M HCl was added to the protein samples. After 30 seconds incubation, PBS containing 4 mg/mL ONPG was added to each of the samples to elute and start substrate conversion. After 3-minute conversion, the eluted samples were retrieved, and absorbance was read at 420 nm. […]

[5] = β-Gal activity after hydrochloric acid exposure; type: physicochemical; details: β-Gal in PFOc
Protocol: as §2, §3

Compound	protein dispersion [1] [%]	evolution of heat (ITC) (β-gal)	evolution of heat (ITC) (IgG)	BSA internalization (A549 cells [2])	lipid translocation (AV+, PI−) (A549 cells [3]; 2 hours)	lipid translocation and membrane permeability (AV+, PI+) (A549 cells [3]; 24 hours)	β-Gal activity versus PBS controls ([4]; bleach)	loss in functionality ([4]; bleach (1% v/v of 10% bleach), few minutes) [%]	β-Gal activity versus PBS controls ([5]; HCl)	loss in functionality ([5]; HCl (4% v/v of 0.1 M), few minutes) [%]
O=C(O)C(F)(F)C(F)(F)C(F)(F)C(F)(F)C(F)(F)C(F)(F)C(F)(F)C(F)(F)F [Compound 7, perfluoronanonic acid]	60	no significant evolution of heat	no significant evolution of heat	less affected	elevated	increased	–	–	–	–
β-Gal: β-Galactosidase (β-Gal), dissolved in PBS/saline or dispersed in PFOc	–	–	–	–	–	–	statistically higher than that of PBS controls	≥ 50	statistically higher than that of PBS controls	≥ 50
